Data set [1] addresses T1, DYRK1A (Homo sapiens, UniProt Q13627).
T1 construct: purchased ProQinase (Freiburg, Germany)
Kind of data set: Kinase-GLO luminescent kinase assay. It counts as biochemical. Particulars: 1 μM compound; means of at least 3 measurements. As for the experimental part:
(§1) Bacterial expression plasmids for GST-DYRK1A-ΔC and GST-DYRK2 have been described earlier. […] Expression in logarithmically growing E. coli culture was performed for 3 h at 37°C (GST-DYRK1A-ΔC and GST-DYRK2), 3 h at 26°C (GST-HIPK2cat), over night at 28°C (GST-CLK1cat) or over night at room temperature (GST-DYRK1Bcat).
(§2) Compounds were screened for inhibitory effects against GST-DYRK1A-ΔC, GST-DYRK1Bcat, GST-DYRK2, GST-CLK1cat or GST-HIPK2cat using the Kinase-GLO Luminescent Kinase Assay from Promega. Assays were performed in a total volume of 10 μL in kinase-buffer (25 mM Hepes pH 7.4, 0.5 mM DTT, 5 mM MgCl2, 5 μM ATP) with appropriate peptide substrates (20 μM DYRKtide for the DYRKs and 100 μM DYRKtide for HIPK2, […]; or 100 μM RS domain-derived peptide for CLK1, […]). Assays were started with this amount of a kinase preparation that consumed approximately 90% of the ATP in the assay (linear range of the kinase titration curve). The reactions were run at room temperature for 30 min before 10 μL Kinase-GLO reagent was added. After incubation at room temperature for additional 10 min, luminescence was recorded for 1 s.
On the technique in general: Kinase-Glo measures the ATP left after a reaction by luminescence.

Another data set concerns the target T2, DYRK2 (Homo sapiens, UniProt Q92630).
T2 construct: purchased ProQinase (Freiburg, Germany)
T2 sequence (Q92630 1-601): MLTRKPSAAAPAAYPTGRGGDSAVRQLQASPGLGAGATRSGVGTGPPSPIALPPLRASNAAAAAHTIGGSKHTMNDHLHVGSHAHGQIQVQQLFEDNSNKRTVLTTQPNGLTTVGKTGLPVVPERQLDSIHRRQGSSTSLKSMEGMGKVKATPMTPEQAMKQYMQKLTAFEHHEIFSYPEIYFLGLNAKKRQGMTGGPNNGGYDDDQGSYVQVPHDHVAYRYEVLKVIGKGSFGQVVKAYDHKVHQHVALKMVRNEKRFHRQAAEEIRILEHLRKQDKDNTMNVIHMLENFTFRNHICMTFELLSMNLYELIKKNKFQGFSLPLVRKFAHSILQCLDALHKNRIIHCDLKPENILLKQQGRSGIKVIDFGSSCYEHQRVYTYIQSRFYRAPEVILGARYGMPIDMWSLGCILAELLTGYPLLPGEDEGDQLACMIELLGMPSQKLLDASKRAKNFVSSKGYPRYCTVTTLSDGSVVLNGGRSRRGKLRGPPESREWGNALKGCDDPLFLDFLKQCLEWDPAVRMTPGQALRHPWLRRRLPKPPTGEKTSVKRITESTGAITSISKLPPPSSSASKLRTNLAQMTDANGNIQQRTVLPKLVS
Kind of data set: Kinase-GLO luminescent kinase assay. It counts as biochemical. Particulars: 1 μM compound; means of at least 3 measurements. The procedure: as §1, §2

The target of data set [2] is T3, CLK1 (Homo sapiens, UniProt P49759). Put plainly: Kinase-GLO luminescent kinase assay. To be noted: 1 μM compound; means of at least 3 measurements. The data set is classed as biochemical. Set-up: made in house; host or cells: E. coli. The procedure: as §1, §2
Target sequence in this assay (P49759 141-484): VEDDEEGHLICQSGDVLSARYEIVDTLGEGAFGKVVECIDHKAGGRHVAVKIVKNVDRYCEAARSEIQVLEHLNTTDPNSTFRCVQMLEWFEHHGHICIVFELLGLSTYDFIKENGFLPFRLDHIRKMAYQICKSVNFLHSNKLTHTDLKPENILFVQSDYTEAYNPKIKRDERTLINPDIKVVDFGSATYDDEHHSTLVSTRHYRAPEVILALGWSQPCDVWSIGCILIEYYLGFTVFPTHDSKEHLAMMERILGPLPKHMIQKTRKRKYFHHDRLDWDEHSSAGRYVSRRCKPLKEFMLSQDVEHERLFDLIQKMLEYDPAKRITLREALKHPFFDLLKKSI
The next data set concerns the target DYRK1B (Homo sapiens, UniProt Q9Y463). Kind of data set: Kinase-GLO luminescent kinase assay. The data set is classed as biochemical. Set-up: made in house; host or cells: E. coli. To be noted: 1 μM compound; means of at least 3 measurements. As for the experimental part:
as §1, §2

Data set [3] concerns the target T4, HIPK2 (Homo sapiens, UniProt Q9H2X6). Put plainly: Kinase-GLO luminescent kinase assay. The data set is classed as biochemical. To be noted: 10 μM compound; means of at least 3 measurements. Set-up: made in house; host or cells: E. coli. As for the experimental part:
as §1, §2
Target sequence in this assay (Q9H2X6 180-533): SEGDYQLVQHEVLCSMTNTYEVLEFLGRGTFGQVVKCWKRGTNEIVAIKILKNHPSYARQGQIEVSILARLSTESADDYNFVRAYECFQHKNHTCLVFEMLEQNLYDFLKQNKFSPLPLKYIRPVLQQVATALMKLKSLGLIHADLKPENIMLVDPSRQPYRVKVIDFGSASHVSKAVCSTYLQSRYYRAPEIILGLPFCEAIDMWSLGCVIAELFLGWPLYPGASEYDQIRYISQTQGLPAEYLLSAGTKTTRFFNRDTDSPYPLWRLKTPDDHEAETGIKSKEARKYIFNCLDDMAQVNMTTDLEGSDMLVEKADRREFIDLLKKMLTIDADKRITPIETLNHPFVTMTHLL

A short description of data set [4]: Cell viability XTT assay. It counts as cell-based. To be noted: human, read-out: Viability of treated cells relative to untreated control.
Data set [5] in a line: Cell viability XTT assay. The data set is classed as cell-based. To be noted: rat, read-out: Viability of treated cells relative to untreated control; for viability at 3 days, 1 µM: PC12, 1 μM.
Data set [6] can be described thus: Cell viability XTT assay. It counts as cell-based. Particulars: human, read-out: Viability of treated cells relative to untreated control. The source holds these as a separate data set. A general note: Formazan colour is commonly taken as a measure of viable cells.
The target of the next data set is T5, CLK3 (Homo sapiens, UniProt P49761).
T5 construct: purchased ProQinase (Freiburg, Germany)
To be noted: 10 μM; cited from earlier work.

For data set [7], the system named is DYRK1A. Particulars: 10 μM; cited from earlier work.
Data set [8] deals with T3, CLK1. Set-up: purchased ProQinase (Freiburg, Germany). To be noted: 10 μM; cited from earlier work.
Target sequence in this assay (P49759 whole entry): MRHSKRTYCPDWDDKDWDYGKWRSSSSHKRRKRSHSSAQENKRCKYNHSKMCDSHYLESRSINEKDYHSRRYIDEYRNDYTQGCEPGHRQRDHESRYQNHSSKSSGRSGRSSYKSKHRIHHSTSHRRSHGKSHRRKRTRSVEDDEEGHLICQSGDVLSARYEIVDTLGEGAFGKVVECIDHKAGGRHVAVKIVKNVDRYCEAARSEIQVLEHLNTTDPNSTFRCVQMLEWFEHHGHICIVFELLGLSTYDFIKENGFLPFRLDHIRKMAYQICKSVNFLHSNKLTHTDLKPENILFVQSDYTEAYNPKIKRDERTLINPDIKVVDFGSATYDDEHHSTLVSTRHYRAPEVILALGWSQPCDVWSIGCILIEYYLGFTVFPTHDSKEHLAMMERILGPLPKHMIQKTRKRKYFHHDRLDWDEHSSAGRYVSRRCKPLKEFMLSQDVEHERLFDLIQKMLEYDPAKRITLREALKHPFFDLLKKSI
The next data set concerns the target HIPK1 (Homo sapiens, UniProt Q86Z02). Set-up: purchased ProQinase (Freiburg, Germany). Particulars: 10 μM; cited from earlier work.
For data set [9], the target named is T4, HIPK2. More on the design: purchased ProQinase (Freiburg, Germany). To be noted: 10 μM; cited from earlier work.
Target sequence in this assay (Q9H2X6 whole entry): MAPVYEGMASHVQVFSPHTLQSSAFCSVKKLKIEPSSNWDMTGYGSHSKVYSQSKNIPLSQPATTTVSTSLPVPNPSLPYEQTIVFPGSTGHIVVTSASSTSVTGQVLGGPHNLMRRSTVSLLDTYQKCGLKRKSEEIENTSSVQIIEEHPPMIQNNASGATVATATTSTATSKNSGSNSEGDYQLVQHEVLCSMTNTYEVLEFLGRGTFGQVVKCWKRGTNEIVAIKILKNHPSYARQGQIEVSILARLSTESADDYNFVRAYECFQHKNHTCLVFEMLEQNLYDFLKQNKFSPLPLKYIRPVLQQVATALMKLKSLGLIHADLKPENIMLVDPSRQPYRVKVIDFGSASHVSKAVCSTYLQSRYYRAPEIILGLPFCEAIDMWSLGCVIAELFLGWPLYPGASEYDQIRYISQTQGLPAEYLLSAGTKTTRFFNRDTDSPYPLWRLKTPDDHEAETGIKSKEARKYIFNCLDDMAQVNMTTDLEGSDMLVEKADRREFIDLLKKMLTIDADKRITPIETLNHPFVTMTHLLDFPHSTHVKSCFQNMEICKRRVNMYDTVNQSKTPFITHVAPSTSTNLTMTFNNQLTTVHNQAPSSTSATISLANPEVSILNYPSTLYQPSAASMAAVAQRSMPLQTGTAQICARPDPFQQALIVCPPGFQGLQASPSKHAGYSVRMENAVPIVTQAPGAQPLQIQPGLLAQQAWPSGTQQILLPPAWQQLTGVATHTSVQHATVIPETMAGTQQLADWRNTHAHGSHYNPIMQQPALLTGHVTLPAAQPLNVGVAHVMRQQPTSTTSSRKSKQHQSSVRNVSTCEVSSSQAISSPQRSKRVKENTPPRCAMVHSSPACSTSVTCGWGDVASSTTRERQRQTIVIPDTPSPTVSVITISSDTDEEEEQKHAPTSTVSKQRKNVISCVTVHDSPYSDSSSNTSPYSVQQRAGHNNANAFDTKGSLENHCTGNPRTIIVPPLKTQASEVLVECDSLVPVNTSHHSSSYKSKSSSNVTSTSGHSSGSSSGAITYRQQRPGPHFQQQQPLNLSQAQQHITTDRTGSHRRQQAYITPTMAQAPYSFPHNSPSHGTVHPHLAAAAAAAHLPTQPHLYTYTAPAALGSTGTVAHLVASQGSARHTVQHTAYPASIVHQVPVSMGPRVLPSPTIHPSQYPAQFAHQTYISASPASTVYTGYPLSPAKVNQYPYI
The target of another data set is T6, HIPK4 (Homo sapiens, UniProt Q8NE63).
T6 sequence (Q8NE63 1-616): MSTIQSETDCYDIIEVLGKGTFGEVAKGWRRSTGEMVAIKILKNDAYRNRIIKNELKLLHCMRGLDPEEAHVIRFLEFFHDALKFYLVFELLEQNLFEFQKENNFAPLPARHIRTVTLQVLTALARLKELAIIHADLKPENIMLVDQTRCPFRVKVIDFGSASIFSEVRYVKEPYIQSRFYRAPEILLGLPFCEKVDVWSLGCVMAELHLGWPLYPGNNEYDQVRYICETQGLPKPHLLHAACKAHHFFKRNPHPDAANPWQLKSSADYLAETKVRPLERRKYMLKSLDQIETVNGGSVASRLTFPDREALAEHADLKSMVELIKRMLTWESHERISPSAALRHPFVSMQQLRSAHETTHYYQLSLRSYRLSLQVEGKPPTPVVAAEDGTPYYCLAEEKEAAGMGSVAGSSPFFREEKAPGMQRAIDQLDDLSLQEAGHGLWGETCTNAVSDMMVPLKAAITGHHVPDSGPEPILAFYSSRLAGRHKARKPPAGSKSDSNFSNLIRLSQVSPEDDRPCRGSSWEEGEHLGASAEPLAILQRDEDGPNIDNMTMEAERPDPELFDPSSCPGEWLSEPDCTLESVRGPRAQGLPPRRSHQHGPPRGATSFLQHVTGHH
Set-up: purchased ProQinase (Freiburg, Germany). To be noted: 10 μM; cited from earlier work.

The next data set addresses IRAK1 (Homo sapiens, UniProt P51617). Set-up: purchased ProQinase (Freiburg, Germany). Particulars: 10 μM; cited from earlier work.
The next data set deals with PIM2 (Homo sapiens, UniProt Q9P1W9). Set-up: purchased ProQinase (Freiburg, Germany). To be noted: 10 μM; cited from earlier work.
PIM2, sequence (Q9P1W9 whole entry): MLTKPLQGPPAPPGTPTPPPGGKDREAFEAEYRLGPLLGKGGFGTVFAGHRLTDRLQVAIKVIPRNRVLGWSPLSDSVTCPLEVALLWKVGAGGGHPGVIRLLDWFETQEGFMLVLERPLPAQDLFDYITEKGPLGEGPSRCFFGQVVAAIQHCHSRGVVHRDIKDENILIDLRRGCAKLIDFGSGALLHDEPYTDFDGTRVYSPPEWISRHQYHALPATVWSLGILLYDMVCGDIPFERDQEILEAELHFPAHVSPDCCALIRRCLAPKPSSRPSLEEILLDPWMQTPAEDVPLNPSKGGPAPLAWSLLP
Another data set has as its target PIM3 (Homo sapiens, UniProt Q86V86). More on the design: purchased ProQinase (Freiburg, Germany). Particulars: 10 μM; cited from earlier work.
Another data set addresses HIPK3 (Homo sapiens, UniProt Q9H422). Set-up: purchased ProQinase (Freiburg, Germany). Particulars: 10 μM; cited from earlier work.
The next data set has as its target PIM1 (Homo sapiens, UniProt P11309). More on the design: purchased ProQinase (Freiburg, Germany). Particulars: 10 μM; cited from earlier work.

Read-outs that look alike come from different tables or passages of the source.

IRAK1, sequence (P51617 whole entry): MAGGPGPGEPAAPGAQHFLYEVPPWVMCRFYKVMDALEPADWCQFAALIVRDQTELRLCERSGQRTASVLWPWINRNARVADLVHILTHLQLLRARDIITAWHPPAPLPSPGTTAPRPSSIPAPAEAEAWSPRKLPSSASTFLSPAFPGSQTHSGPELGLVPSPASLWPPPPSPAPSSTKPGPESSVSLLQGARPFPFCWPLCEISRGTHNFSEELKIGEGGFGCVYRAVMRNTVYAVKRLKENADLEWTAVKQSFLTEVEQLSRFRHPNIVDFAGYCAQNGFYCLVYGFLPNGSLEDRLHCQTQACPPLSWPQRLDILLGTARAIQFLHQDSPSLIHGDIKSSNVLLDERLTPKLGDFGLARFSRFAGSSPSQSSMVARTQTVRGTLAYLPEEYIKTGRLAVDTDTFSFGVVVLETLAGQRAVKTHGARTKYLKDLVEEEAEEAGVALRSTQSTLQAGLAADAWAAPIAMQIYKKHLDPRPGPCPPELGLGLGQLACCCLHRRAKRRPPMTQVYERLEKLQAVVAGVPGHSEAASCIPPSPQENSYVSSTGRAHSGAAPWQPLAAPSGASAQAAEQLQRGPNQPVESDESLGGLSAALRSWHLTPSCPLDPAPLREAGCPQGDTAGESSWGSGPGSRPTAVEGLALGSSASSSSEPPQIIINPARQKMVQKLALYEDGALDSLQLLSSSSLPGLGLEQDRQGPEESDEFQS
HIPK1, sequence (Q86Z02 whole entry): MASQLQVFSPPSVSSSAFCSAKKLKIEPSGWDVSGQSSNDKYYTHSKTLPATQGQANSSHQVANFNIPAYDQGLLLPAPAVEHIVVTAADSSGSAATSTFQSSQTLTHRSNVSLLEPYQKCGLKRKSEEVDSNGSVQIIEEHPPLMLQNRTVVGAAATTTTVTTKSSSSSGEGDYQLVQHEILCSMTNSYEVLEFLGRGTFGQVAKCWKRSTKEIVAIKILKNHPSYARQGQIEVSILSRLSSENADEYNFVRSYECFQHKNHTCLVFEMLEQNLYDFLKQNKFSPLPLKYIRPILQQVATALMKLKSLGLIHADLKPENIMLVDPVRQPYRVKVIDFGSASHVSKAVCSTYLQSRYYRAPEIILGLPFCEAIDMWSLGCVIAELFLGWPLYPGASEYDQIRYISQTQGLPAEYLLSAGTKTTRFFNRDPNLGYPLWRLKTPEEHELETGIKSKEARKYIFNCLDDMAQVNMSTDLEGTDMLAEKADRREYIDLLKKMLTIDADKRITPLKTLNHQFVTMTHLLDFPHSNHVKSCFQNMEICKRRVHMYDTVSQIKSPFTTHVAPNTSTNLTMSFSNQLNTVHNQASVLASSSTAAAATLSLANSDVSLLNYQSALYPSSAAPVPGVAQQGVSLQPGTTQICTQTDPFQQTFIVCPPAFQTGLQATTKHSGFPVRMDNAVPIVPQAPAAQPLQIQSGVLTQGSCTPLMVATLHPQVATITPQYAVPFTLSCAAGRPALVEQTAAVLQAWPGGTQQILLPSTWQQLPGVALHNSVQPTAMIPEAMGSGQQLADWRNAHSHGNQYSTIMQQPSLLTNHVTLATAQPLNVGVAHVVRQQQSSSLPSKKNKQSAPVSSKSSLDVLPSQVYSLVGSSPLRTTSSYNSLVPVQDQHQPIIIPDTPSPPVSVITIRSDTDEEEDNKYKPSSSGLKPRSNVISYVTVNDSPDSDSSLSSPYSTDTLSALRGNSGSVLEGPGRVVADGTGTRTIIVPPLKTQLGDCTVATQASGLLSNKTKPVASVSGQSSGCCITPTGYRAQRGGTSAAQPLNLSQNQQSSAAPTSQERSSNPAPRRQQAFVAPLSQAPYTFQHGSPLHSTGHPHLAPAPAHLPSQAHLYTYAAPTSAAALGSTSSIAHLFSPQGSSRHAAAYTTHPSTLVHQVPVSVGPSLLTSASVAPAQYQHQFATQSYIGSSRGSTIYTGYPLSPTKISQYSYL

Turning to `COc1ccc2c(c1)[nH]c1c(/C=C/c3ccccc3)nccc12` [AnnH18_5], the “Residual activity (% of control) DYRK1A” value at DYRK1A [1] was 27 % of control. Also, at DYRK2, the “Residual activity (% of control) DYRK2” value is 51 % of control. The “Residual activity (% of control) CLK1” value on CLK1 [2] is 58 % of control. Besides, the “Residual activity (% of control) DYRK1B” value at DYRK1B was 50 % of control. On HIPK2 [3], the “Residual activity (% of control) HIPK2” value was 95 % of control.

In general, viability refers to a read-out of living cells in per cent, often relative to untreated cells. In the case of `COc1ccc2c(c1)[nH]c1c(Cl)nccc12` [AnnH24], the “Residual activity (% of control) DYRK2” value on DYRK2 is recorded as 63 % of control. Further, the viability at 3 days, 1 µM in the data set “Cell viability XTT assay [4]” (HeLa cells) was 97%; in the data set “Cell viability XTT assay [5]” (PC12 cells) it was 95%; in “Cell viability XTT assay [6]” (SH-SY5Y cells), 75%. For the same compound, the viability at 3 days, 3 µM was 96% in “Cell viability XTT assay [4]” (HeLa cells, 3 μM); 90% in “Cell viability XTT assay [5]” (PC12 cells, PC12, 3 μM); 66% in “Cell viability XTT assay [6]” (SH-SY5Y cells, 3 μM). Moreover, the viability at 3 days, 10 µM was 72% in the data set “Cell viability XTT assay [4]” (HeLa cells, 10 μM); 81% in the data set “Cell viability XTT assay [5]” (PC12 cells, PC12, 10 μM); 45% in “Cell viability XTT assay [6]” (SH-SY5Y cells, 10 μM). Also, on CLK1 [2], the “Residual activity (% of control) CLK1” value is listed as 17 % of control. Besides, the “Residual activity (% of control) DYRK1B” value at DYRK1B is 44 % of control. Moreover, the “Residual activity (% of control) HIPK2” value at HIPK2 [3] is listed as 91 % of control.

As for `COc1ccc2c3ccnc(C)c3n(CCC#N)c2c1` [AnnH42], the “Residual activity (% of control) DYRK1A” value on DYRK1A [1] was 22 % of control. In addition, the “Residual activity (% of control) DYRK2” value on DYRK2 is listed as 81 % of control. The “Residual activity (% of control) CLK1” value on CLK1 [2] is 44 % of control. Also, the “Residual activity (% of control) DYRK1B” value on DYRK1B is 43 % of control. Also, at HIPK2 [3], the “Residual activity (% of control) HIPK2” value is 96 % of control.

With `C#CCn1c2c(C)nccc2c2ccc(Cl)c(Cl)c21` [AnnH67], the “Residual activity (% of control) DYRK1A” value on DYRK1A [1] is recorded as 17 % of control. Moreover, the “Residual activity (% of control) DYRK2” value at DYRK2 is 100 % of control. On CLK1 [2], the “Residual activity (% of control) CLK1” value is on record as 34 % of control. For the same compound, at DYRK1B, the “Residual activity (% of control) DYRK1B” value is given as 59 % of control. Moreover, the “Residual activity (% of control) HIPK2” value on HIPK2 [3] is given as 74 % of control.

As to `Cc1nccc2c3ccc(Cl)c(Cl)c3n(CC#N)c12` [AnnH69], at DYRK1A [1], the “Residual activity (% of control) DYRK1A” value is given as 17 % of control. In addition, the “Residual activity (% of control) DYRK2” value on DYRK2 is on record as 61 % of control. The “Residual activity (% of control) CLK1” value on CLK1 [2] was 33 % of control. The “Residual activity (% of control) DYRK1B” value on DYRK1B is 60 % of control. In addition, the “Residual activity (% of control) HIPK2” value at HIPK2 [3] is listed as 33 % of control.

Regarding `C#CCn1c2cc(OC)ccc2c2ccnc(Cl)c21` [AnnH74], the “Residual activity (% of control) DYRK1A” value on DYRK1A [1] was 12 % of control. The “Residual activity (% of control) DYRK2” value at DYRK2 is 85 % of control. In addition, on CLK1 [2], the “Residual activity (% of control) CLK1” value is 46 % of control. The “Residual activity (% of control) DYRK1B” value on DYRK1B was 35 % of control. Also, the “Residual activity (% of control) HIPK2” value at HIPK2 [3] was 97 % of control.

As for `O=C1NC(Nc2ccccc2)=N/C1=C\c1ccc2c(c1)OCO2` [L41], the “Residual activity (% of control)” value at CLK3 is 2 % of control; in the data set on DYRK1A [7], 0 % of control; on CLK1 [8] it was 0 % of control; at HIPK1, 1 % of control; at HIPK2 [9] it was 11 % of control; at HIPK4, 44 % of control. Besides, the “Residual activity (% of control)” value was 3 % of control on IRAK1, 41 % of control on PIM2 and 27 % of control on PIM3.

Consider `CN1C(=O)/C(=C/c2ccc3c(c2)OCO3)N=C1N` [Leucett-amine B, Leucettamine B], for which the “Residual activity (% of control)” value with DYRK1A [7] was 2 % of control; on HIPK1 it was 34 % of control; at HIPK2 [9] it was 60 % of control; at HIPK3 it was 45 % of control; at HIPK4 it was 91 % of control; at IRAK1, 100 % of control. For the same compound, the “Residual activity (% of control)” value at PIM1 is 73 % of control; at PIM2, 82 % of control; on PIM3, 71 % of control.

On to `CN[C@@H]1C[C@H]2O[C@@](C)([C@@H]1OC)n1c3ccccc3c3c4c(c5c6ccccc6n2c5c31)C(=O)NC4` [Staurosporine, reference compound], for which the viability at 3 days, 1 µM in “Cell viability XTT assay [4]” (HeLa) worked out at 8%; in “Cell viability XTT assay [5]” it was 18%; in “Cell viability XTT assay [6]” (SH-SY5Y), 6%.

The values are drawn from paper PMC4508061, “Selectivity Profiling and Biological Activity of Novel β-Carbolines as Potent and Selective DYRK1 Kinase Inhibitors” (PLoS ONE, 2015).
